The target in test [1] is human muscarinic M3 receptor (Homo sapiens, UniProt P20309). The test can be described thus: Alphascreen Surefire phospho-ERK1/2 functional assay, M3. Particulars: for Emax: CHO, read-out: M3 % Emax cf. ACh, CHO cells stably expressing human M3; for Emax / M3 % Emax cf. ACh: Emax relative to ACh; for M3 % Emax cf. ACh / pEC50 M3: CHO cells stably expressing human M3; for pEC50 M3: phospho-ERK1/2.
Method: CHO cells stably expressing the human muscarinic M1, M2, M3 or M4 receptor were plated (25K/well) onto 96-well tissue culture plates in MEM-alpha+10% dialysed FBS. Once adhered, cells were serum-starved overnight. Agonist stimulation was performed by the addition of 5 μL agonist to the cells for 5 min (37° C.). Media was removed and 50 μL of lysis buffer added. After 15 min, a 4 μL sample was transferred to 384-well plate and 7 μL of detection mixture added. Plates were incubated for 2 h with gentle agitation in the dark and then read on a PHERAstar plate reader.
pEC50 and Emax figures were calculated from the resulting data for each receptor subtype.

Test [2] concerns the target T1, human muscarinic M4 receptor (Homo sapiens, UniProt P08173).
T1 construct: expressed in transfected cells
T1 sequence (P08173 1-479): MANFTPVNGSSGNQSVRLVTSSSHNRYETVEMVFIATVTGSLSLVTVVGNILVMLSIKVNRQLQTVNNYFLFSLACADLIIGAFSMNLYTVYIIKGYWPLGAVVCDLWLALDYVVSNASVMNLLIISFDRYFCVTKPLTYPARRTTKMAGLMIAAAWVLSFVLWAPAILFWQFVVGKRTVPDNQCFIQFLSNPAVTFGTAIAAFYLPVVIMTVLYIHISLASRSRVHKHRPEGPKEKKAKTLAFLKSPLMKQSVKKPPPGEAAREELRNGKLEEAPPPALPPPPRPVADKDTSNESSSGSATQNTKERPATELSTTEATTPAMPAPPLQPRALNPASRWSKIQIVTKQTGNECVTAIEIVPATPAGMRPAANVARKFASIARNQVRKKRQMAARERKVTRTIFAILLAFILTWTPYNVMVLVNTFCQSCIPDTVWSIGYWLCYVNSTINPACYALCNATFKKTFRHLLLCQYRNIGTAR
The test is described as follows: Alphascreen Surefire phospho-ERK1/2 functional assay, M4. Particulars: for EC50: read-out: pEC50 M4 (converted); for Emax: CHO, read-out: M4 % Emax cf. ACh, CHO cells stably expressing human M4; for Emax / M4 % Emax cf. ACh: Emax relative to ACh. It counts as cell-based.

Test [3] has as its target T2, human muscarinic M2 receptor (Homo sapiens, UniProt P08172).
T2 sequence (P08172 1-466): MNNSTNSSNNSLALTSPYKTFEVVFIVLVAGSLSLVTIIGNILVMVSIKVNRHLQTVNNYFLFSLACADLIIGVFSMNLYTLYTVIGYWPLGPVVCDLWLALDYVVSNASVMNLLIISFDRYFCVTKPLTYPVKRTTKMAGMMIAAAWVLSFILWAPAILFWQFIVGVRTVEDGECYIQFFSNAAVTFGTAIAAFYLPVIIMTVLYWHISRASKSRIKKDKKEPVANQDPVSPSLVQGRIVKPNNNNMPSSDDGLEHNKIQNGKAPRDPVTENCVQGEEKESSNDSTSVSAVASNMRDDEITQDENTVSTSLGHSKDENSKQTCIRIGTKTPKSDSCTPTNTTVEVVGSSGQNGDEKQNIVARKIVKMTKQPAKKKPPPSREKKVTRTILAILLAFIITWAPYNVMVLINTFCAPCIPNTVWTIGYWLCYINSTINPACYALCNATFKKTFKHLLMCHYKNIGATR
The test is described as follows: Alphascreen Surefire phospho-ERK1/2 functional assay, M2. The conditions noted are these: for Emax: CHO, read-out: M2 % Emax cf. ACh, CHO cells stably expressing human M2; for Emax / M2 % Emax cf. ACh: Emax relative to ACh; for EC50: pEC50 M2, CHO cells stably expressing human M2; for EC50 / pEC50 M2: phospho-ERK1/2; for M2 % Emax cf. ACh / pEC50 M2: CHO cells stably expressing human M2. On the technique in general: Bead proximity is the source of the signal in Alpha formats.

Test [4] concerns the target T3, human muscarinic M1 receptor (Homo sapiens, UniProt P11229).
T3 construct: expressed in transfected cells
T3 sequence (P11229 1-460): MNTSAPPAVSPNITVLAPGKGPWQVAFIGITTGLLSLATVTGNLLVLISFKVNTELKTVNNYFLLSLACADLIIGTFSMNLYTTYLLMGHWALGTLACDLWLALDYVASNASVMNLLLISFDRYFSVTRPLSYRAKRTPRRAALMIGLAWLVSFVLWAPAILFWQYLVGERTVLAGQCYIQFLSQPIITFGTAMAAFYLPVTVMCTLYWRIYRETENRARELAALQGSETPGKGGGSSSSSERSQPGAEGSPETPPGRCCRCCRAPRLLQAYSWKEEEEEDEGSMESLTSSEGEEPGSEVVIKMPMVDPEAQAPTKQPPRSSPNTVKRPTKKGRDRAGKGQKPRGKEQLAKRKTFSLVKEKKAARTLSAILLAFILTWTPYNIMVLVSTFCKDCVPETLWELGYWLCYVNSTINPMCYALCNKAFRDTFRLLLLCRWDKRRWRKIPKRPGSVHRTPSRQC
The test can be described thus: Alphascreen Surefire phospho-ERK1/2 functional assay, M1. Particulars: for EC50 / M1 % Emax cf. ACh: CHO cells stably expressing human M1; for EC50: phospho-ERK1/2, read-out: pEC50 M1 (converted); for Emax: CHO, read-out: M1 % Emax cf. ACh, CHO cells stably expressing human M1; for Emax / M1 % Emax cf. ACh: Emax relative to ACh. It counts as cell-based.

Setting [5] is: CHO cells stably expressing human M4, phospho-ERK1/2.
Setting [6] is: CHO cells stably expressing human M4.

Molecules are shown by their SMILES.

Chain of human muscarinic M3 receptor (P20309 whole entry): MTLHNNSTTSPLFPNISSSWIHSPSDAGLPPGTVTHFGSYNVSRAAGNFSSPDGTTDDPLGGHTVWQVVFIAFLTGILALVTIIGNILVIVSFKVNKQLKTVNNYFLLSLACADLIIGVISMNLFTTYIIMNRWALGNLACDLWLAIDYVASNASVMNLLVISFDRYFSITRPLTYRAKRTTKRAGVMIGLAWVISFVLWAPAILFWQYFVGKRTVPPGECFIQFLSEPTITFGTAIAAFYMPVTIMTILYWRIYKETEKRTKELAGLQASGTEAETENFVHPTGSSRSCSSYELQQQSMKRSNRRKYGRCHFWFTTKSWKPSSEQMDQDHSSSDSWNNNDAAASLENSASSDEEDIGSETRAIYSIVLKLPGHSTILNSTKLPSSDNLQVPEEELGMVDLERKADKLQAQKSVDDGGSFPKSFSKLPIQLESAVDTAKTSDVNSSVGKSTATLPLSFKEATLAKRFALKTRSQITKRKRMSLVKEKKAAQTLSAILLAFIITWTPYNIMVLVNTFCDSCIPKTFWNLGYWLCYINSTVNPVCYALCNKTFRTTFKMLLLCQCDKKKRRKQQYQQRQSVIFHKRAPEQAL

As usually defined, the Emax is the maximal effect, on the per cent scale that the assay sets. As to `CCOC(=O)N1CCC2(CC(N3CCC4(CC3)OC(=O)N(C3CC3)C4CC)C2)C1` (mixture of isomers) [4-47 mixture of diastereomers], the EC50 in test [1] is above 20 µM; in test [2] (setting [5]), 63.1 nM; in test [3], above 20 µM; in test [4], 1000 nM. Besides, the maximum response (Emax) in test [1] was 7%; in test [2], 106%; in test [3], 7%; in test [4], 86%.

For the compound `CCOC(=O)N1CCC2(CC(N3CCC4(CC3)OC(=O)N(OC)C4CC)C2)C1` (mixture of isomers) [4-48 mixture of diastereomers], the EC50 in test [1] is above 20 µM; in test [2] (setting [5]) it was 100 nM; in test [3], above 20 µM; in test [4] it was 501 nM. Moreover, the Emax in test [1] is 11%; in test [2], 77%; in test [3] it was 3%; in test [4], 56%.

Consider `CCOC(=O)N1CC2(CCC(N3CCC4(CC3)OC(=O)NC4CC)C2)C1` (mixture of isomers) [8-1 mixture of diastereomers], for which the EC50 in test [1] was above 20 µM; in test [2] (setting [5]), 2 nM; in test [3], above 20 µM; in test [4], 10 nM. For the same compound, the Emax in test [1] amounted to 2%; in test [2], 70%; in test [3], 0%; in test [4], 70%.

As for `CCOC(=O)N1CC2(CCC(N3CCC4(CC3)OC(=O)N(CC)C4CC)C2)C1` (mixture of isomers) [8-2 mixture of diastereomers], the EC50 is above 20 µM in test [1], 10 nM in test [2] (setting [5]), above 20 µM in test [3] and 200 nM in test [4]. For the same compound, the Emax is 1% in test [1], 30% in test [2], 1% in test [3] and 65% in test [4].

As for `CCOC(=O)N1CC2(CC(N3CCC4(CC3)OC(=O)N(CC)C4CC)C2)C1` (racemic) [2-2 racemic], the EC50 was above 20 µM in test [1], 200 nM in test [2] (setting [5]), above 20 µM in test [3] and 2000 nM in test [4]. The Emax was determined as 27% in test [1], 69% in test [2], 71% in test [3] and 74% in test [4].

In the case of `CCOC(=O)N1CC2(CCC(N3CCC4(CC3)CNC(=O)C4)C2)C1` (racemic) [7-1 racemic], the EC50 in test [1] is above 20 µM; in test [2] (setting [5]), above 20000 nM; in test [3], above 20 µM; in test [4], 5.01 nM. Also, the Emax is 4% in test [1], 14% in test [2], 0% in test [3] and 26% in test [4].

With `CCOC(=O)N1CC2(CCC(N3CCC4(CC3)OC(=O)N(CC)C4(C)C)C2)C1` (racemic) [8-4 racemic], the EC50 was above 20 µM in test [1], 7.94 nM in test [2] (setting [5]), above 20 µM in test [3] and 200 nM in test [4]. Besides, the Emax amounted to 1% in test [1], 91% in test [2], 4% in test [3] and 63% in test [4].

On to `CCOC(=O)N1CC2(CC(N3CCC4(CC3)OC(=O)NC4CC)C2)C1` (single isomer, unassigned) [2-1 Isomer 1], for which, in test [1], the “M3 % Emax cf. ACh” value was “(9) %” and the “pEC50 M3” value is reported as below 4.7. For the same compound, in test [2] (setting [6]), the “M4 % Emax cf. ACh” value is on record as “(117) %”. In addition, the “pEC50 M4” value in test [2] (setting [5]) was determined as 6.9. For the same compound, in test [3], the “M2 % Emax cf. ACh” value is “(15) %” and the “pEC50 M2” value is given as below 4.7. Further, in test [4], the “M1 % Emax cf. ACh” value is recorded as “(107) %” and the EC50 was 251 nM.

As to `CCOC(=O)N1CC2(CC(N3CCC4(CC3)OC(=O)NC4CC)C2)C1` (single isomer, unassigned) [2-1 Isomer 2], the EC50 was above 20 µM in test [1], 126 nM in test [2] (setting [5]), above 20 µM in test [3] and 158 nM in test [4]. Also, the “M3 % Emax cf. ACh” value in test [1] is listed as “(4) %”. For the same compound, the Emax in test [2] was 108%; in test [3] it was 15%; in test [4], 106%.

As to `COC(=O)N1CCC2(CC(N3CCC4(CC3)CNC(=O)C4)C2)C1` (single isomer, unassigned) [3-1 Isomer 2], the EC50 in test [1] is above 20 µM; in test [2] (setting [5]), 100 nM; in test [3], above 20 µM; in test [4] it was 79.4 nM. For the same compound, the Emax in test [1] worked out at 20%; in test [2], 50%; in test [3], 14%; in test [4] it was 87%.

Turning to `CCOC(=O)N1CCC2(CC(N3CCC4(CC3)CNC(=O)C4)C2)C1` (single isomer, unassigned) [3-2 Isomer 2], the EC50 in test [1] is above 20 µM; in test [2] (setting [5]) it was 20 nM; in test [3], above 20 µM; in test [4] it was 15.8 nM. Further, the Emax in test [1] is 2%; in test [2], 50%; in test [3], 3%; in test [4], 87%.

Take `CCOC(=O)N1CCC2(CC(N3CCC4(CC3)CC(=O)NC4C)C2)C1` (single isomer, unassigned) [3-3 Isomer 2]: the EC50 in test [1] is above 20 µM; in test [2] (setting [5]), 200 nM; in test [3], above 20 µM; in test [4], 158 nM. The Emax in test [1] stood at 7%; in test [2], 81%; in test [3] it was 2%; in test [4] it was 97%.

`CCC1NC(=O)CC12CCN(C1CC3(CCN(C(=O)OC)C3)C1)CC2` (single isomer, unassigned) [3-4 Isomer 3]: in test [1], the EC50 was above 20 µM and the Emax came to 24%. The “M4 % Emax cf. ACh” value in test [2] (setting [6]) is “(71) %”. Also, in test [2] (setting [5]), the EC50 is 25.1 nM. In test [3], the “M2 % Emax cf. ACh” value was “(8) %” and the EC50 is above 20 µM. Further, in test [4], the “M1 % Emax cf. ACh” value is “(101) %” and the EC50 is 79.4 nM.

For the compound `CCC1NC(=O)CC12CCN(C1CC3(CCN(C(=O)OC)C3)C1)CC2` (single isomer, unassigned) [3-4 Isomer 4], in test [1], the “M3 % Emax cf. ACh” value is recorded as “(17) %” and the “pEC50 M3” value is recorded as below 4.7. Further, in test [2] (setting [6]), the “M4 % Emax cf. ACh” value is “(76) %”. In addition, in test [2] (setting [5]), the EC50 was 6.31 nM. In test [3], the “M2 % Emax cf. ACh” value was “(20) %” and the “pEC50 M2” value is below 4.7. Further, in test [4], the “M1 % Emax cf. ACh” value is listed as “(90) %” and the EC50 is 63.1 nM.

On to `CCOC(=O)N1CC2(CC(N3CCC4(CC3)OC(=O)NC4(C)C)C2)C1` [Example 2-3, ethyl 6-(4,4-dimethyl-2-oxo-1-oxa-3,8-diazaspiro[4.5]decan-8-yl)-2-azaspiro[3.3]heptane-2-carboxylate], for which the EC50 in test [2] (setting [5]) was 1000 nM; in test [4], 3160 nM. The Emax in test [2] worked out at 73%; in test [4], 92%.

For `CCOC(=O)N1CC2(CC(N3CCC4(CC3)OC(=O)N3CCCC34)C2)C1` (stereo not drawn) [Example 2-5, ethyl 6-(3′-oxotetrahydro-1H-spiro[piperidine-4,1′-pyrrolo[1,2-c][1,3]oxazol]-1-yl)-2-azaspiro[3.3]heptane-2-carboxylate], the EC50 is 126 nM in test [2] (setting [5]) and 1000 nM in test [4]. Besides, the Emax in test [2] was determined as 34%; in test [4] it was 28%.
